Measurements published in US11136352B2, “Immunotherapy against several tumors including neuronal and brain tumors” (IMMATICS BIOTECHNOLOGIES GMBH, priority 2008, dated 2021).

tested on: granzyme B-secreting CTLs; assay: not given; details: type 1 diabetic patients and antibody-positive relatives compared with healthy donors; cited from earlier work

Row | Compound | Reactivity of granzyme B-secreting CTLs
1 | NLAQDLATV (listed as Homo sapiens) [GFAP-001, HLA-A*02 peptide from GFAP] | enhanced reactivity

tested on: CD8+ T cells from HLA-A*02+ buffy coats of healthy donors; assay: In vitro priming of CD8+ T cells with pMHC/anti-CD28 coated beads (aAPC), tetramer readout; assay type: cell-based, human; details: healthy HLA-A*02+ donors; three in vitro stimulations; TUMAP-specific tetramer+ CD8+ T cells
Protocol: To perform in vitro stimulations by artificial antigen presenting cells (aAPC) loaded with peptide-MHC complex (pMHC) and anti-CD28 antibody, first we isolated PBMCs (peripheral blood mononuclear cells) from fresh HLA-A*02+ buffy coats by using standard density gradient separation medium (PAA, Cölbe, Germany). Buffy coats were either obtained from the Blood Bank Tubingen or from the Katharinenhospital Stuttgart. Isolated PBMCs were incubated overnight in T-cell medium (TCM) for human in vitro priming consisting of RPMI-Glutamax (Invitrogen, Karlsruhe, Germany) supplemented with 10% heat inactivated human AB serum (PAA, Cölbe, Germany), 100 U/ml Penicillin/100 μg/ml Streptomycin (Cambrex, Verviers, Belgium), 1 mM sodium pyruvate (CC Pro, Neustadt, Germany) and 20 μg/ml Gentamycin (Cambrex). CD8+ lymphocytes were isolated using the CD8+ MACS positive selection kit (Miltenyi, Bergisch Gladbach, Germany) according to the manufacturer's instructions. […] 800.000 beads/200 μl were coated in 96-well plates in the presence of 600 ng biotin anti-CD28 plus 200 ng relevant biotin-pMHC (high density beads) or 2 ng relevant plus 200 ng irrelevant (pMHC library) MHC (low density beads). Stimulations were initiated in 96-well plates by co-incubating 1×10^6 CD8+ T cells with 2×10^5 washed coated beads in 200 μl TCM supplemented with 5 ng/ml IL-12 (PromoCell) for 3-4 days at 37° C. Half of the medium was then exchanged by fresh TCM supplemented with 80 U/ml IL-2 and incubating was continued for 3-4 days at 37° C. This stimulation cycle was performed for a total of three times. […] Peptide specific cells were calculated as percentage of total CD8+ T cells. Evaluation of tetrameric analysis was done using the software FCS Express (De Novo Software). In vitro priming of specific tetramer+CD8+ lymphocytes was detected by appropriate gating and by comparing to negative control stimulations.

Row | Compound | Positive donors/donors tested [%] | Positive wells/wells tested [%]
2 | ALWAWPSEL (listed as Homo sapiens) [BCA-002, HLA-A*02 peptide from BCAN] | 75 | 35
3 | GLWHHQTEV (listed as Homo sapiens) [NRCAM-001, HLA-A*02 peptide from NRCAM] | 86 | 39
4 | CSCC[C@H](NC(=O)[C@@H](N)[C@@H](C)O)C(=O)N[C@@H](CC(C)C)C(=O)N[C@@H](C)C(=O)N[C@@H](CCCNC(=N)N)C(=O)N[C@@H](CC(C)C)C(=O)N[C@@H](C)C(=O)N[C@@H](CO)C(=O)N[C@@H](C)C(=O)O [CSP-001] | 100 | 57
5 | GLQSQIAQV (listed as Homo sapiens) [NES-001, HLA-A*02 peptide from NES] | 75 | 38
6 | NLDTLMTYV (listed as Homo sapiens) [NLGN4X-001, HLA-A*02 peptide from NLGN4X] | 100 | 62
7 | TLVGIIVGV (listed as Homo sapiens) [PDPN-001, HLA-A*02 peptide from PDPN] | 60 | 11
8 | FLGDPPEKL (listed as Homo sapiens) [BCA-001, HLA-A*02 peptide from BCAN] | 60 | 5
9 | LTFGDVVAV (listed as Homo sapiens) [FABP7-001, HLA-A*02 peptide from FABP7] | 100 | 27
10 | YLIAGIISL (listed as Homo sapiens) [SLCO1C1-001, HLA-A*02 peptide from SLCO1C1] | 60 | 7
11 | KIQEILTQV (listed as Homo sapiens) [IGF2BP3-001, HLA-A*02 peptide from IGF2BP3] | 50 | 21
12 | AMTQLLAGV (listed as Homo sapiens) [TNC-001, HLA-A*02 peptide from TNC] | 60 | 30
13 | SLNELRVLL (listed as Homo sapiens) [CLIP2-001, HLA-A*02 peptide from CLIP2] | 75 | 6
14 | QLLAGVFLA (listed as Homo sapiens) [TNC-002, HLA-A*02 peptide from TNC] | 50 | 14

tested on: precursor T cells of glioblastoma patients; assay: In vitro immunogenicity in a small number of glioblastoma patients; assay type: cell-based, human; details: compared with healthy donors

Row | Compound | Immunogenicity in glioblastoma patients
15 | ALWAWPSEL (listed as Homo sapiens) [BCA-002, HLA-A*02 peptide from BCAN] | immunogenic to a similar extent compared with healthy donors
16 | NLDTLMTYV (listed as Homo sapiens) [NLGN4X-001, HLA-A*02 peptide from NLGN4X] | immunogenic to a similar extent compared with healthy donors
